US20120328569A1, “INHIBITORS OF HEPATITIS C VIRUS NS5B POLYMERASE” (priority 2010, published 2012)

test system: HCV genotype 1b replicon; test: HCV replicon assay, cell ELISA with antibody to replicon-encoded NS3/4A (genotype 1b replicon); assay type: cell-based, hepatitis C virus; conditions: Hepatitis C virus, 96 h, read-out: 1b IC50(nM), HCV genotype 1b replicon; 96 hours incubation; NS3/4A cell ELISA
In short: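 An ELISA on lysed cells, using an antibody against NS3/4A protease, served as the proxy for replicon RNA. Cells had first been exposed for 96 h to serially diluted compound in G418-free conditions. Percent of DMSO control was fitted with a four-parameter function to give IC50.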

Compound	IC50
CNC(=O)c1c(-c2ccc(F)cc2)oc2cc(N(CCCF)S(C)(=O)=O)c(-c3ccc(OC)c(-c4nc5ncccc5o4)c3)cc12 [Example 863]	1.8 nM
CN(c1cc2oc(-c3ccc(F)cc3)c(C(=O)Nc3cccnc3)c2cc1-c1cccc(-c2cc3ccccc3[nH]2)c1)S(C)(=O)=O [Example 851, 5-(3-(1H-indol-2-yl)phenyl)-2-(4-fluorophenyl)-6-(N-methylmethylsulfonamido)-N-(pyridin-3-yl)benzofuran-3-carboxamide]	350 nM
CNC(=O)c1c(-c2ccc(F)cc2)oc2cc(N(C)S(C)(=O)=O)c(-c3ccc(-c4ccco4)c(-c4nc5c(F)cccc5o4)c3)cc12 [Example 478]	8.65 nM
CNC(=O)c1c(-c2ccc(F)cc2)oc2cc(N(CCF)S(C)(=O)=O)c(-c3ccc(OC)c(-c4nc5cccc(F)c5o4)c3)cc12 [Example 871]	3.5 nM
CNC(=O)c1c(-c2ccc(F)cc2)oc2cc(N(CCC3COC(C)(C)O3)S(C)(=O)=O)c(-c3ccc(OC)c(-c4nc5c(F)cccc5o4)c3)cc12 (centres unmarked) [Example 770]	11.3 nM
CNC(=O)c1c(-c2ccc(F)cc2)oc2cc(N(C(CO)CF)S(C)(=O)=O)c(-c3ccc(OC)c(-c4nc5c(F)cccc5o4)c3)cc12 (centres unmarked) [Example 814]	9.83 nM
CNC(=O)c1c(-c2ccc(F)cc2)oc2cc(N(C)S(C)(=O)=O)c(-c3ccc(OCCO)c(-c4nc5c(F)cccc5o4)c3)cc12 [Example 620]	1.66 nM
CNC(=O)c1c(-c2ccc(F)cc2)oc2cc(N(C)S(C)(=O)=O)c(-c3ccc(N4CCNC4=O)c(-c4nc5c(F)cccc5o4)c3)cc12 [Example 484]	3.31 nM
CNC(=O)c1c(-c2ccc(F)cc2)oc2cc(N(C)S(C)(=O)=O)c(-c3ccc4c(c3)-c3[nH]c5ccccc5c3C(c3cccnc3)O4)cc12 (centres unmarked) [Example 589]	3.38 nM
CNC(=O)c1c(-c2ccc(F)cc2)oc2cc(N(C)S(C)(=O)=O)c(-c3ccc(OC)c(-c4nc5cc(-c6cncnc6)ccc5o4)c3)cc12 [Example 663]	2.5 nM
CNC(=O)c1c(-c2ccc(F)cc2)oc2cc(N(C)S(C)(=O)=O)c(-c3ccc4c(c3)-c3c(Cl)c5ccccc5n3C(C3CC3)O4)cc12 (centres unmarked) [Example 588]	50.4 nM
CNC(=O)c1c(-c2ccc(F)cc2)oc2cc(N(C)S(C)(=O)=O)c(-c3ccc(OC)c(-c4csc5ncccc45)c3)cc12 [Example 686]	17.6 nM
CNC(=O)c1c(-c2ccc(F)cc2)oc2cc(N(C3CC(C#N)C3)S(C)(=O)=O)c(-c3ccc(OC)c(-c4nc5c(F)cc(F)cc5o4)c3)cc12 (centres unmarked) [Example 742]	4.57 nM
CNC(=O)c1c(-c2ccc(F)cc2)oc2cc(N(C)S(C)(=O)=O)c(-c3ccc(-c4cnco4)c(-c4nc5c(Cl)cccc5o4)c3)cc12 [Example 480]	3.01 nM

same assay, conditions: Hepatitis C virus, 96 h, read-out: Replicon 1b IC50 (nM), HCV genotype 1b replicon cells, 96 hours incubation, NS3/4A ELISA readout

Compound	IC50
CNC(=O)c1c(-c2ccc(F)cc2)oc2cc(N(C)S(C)(=O)=O)c(-c3ccc(-c4ccccc4)cc3)cc12 [Example 112, 5-(biphenyl-4-yl)-2-(4-fluorophenyl)-N-methyl-6-[methyl(methylsulfonyl)amino]-1-benzofuran-3-carboxamide]	< 8 nM
CNC(=O)c1c(-c2ccc(F)cc2)oc2cc(N(C)S(C)(=O)=O)c(-c3cccc(-c4nc5cncnc5s4)c3)cc12 [Example 273]	2.2 nM
CNC(=O)c1c(-c2ccc(F)cc2)oc2cc(NC(C)c3ccccc3)c(-c3ccccc3)cc12 (centres unmarked) [Example 69, 2-(4-fluorophenyl)-N-methyl-5-phenyl-6-[(1-phenylethyl)amino]-1-benzofuran-3-carboxamide]	> 3000 nM
CCCCCCN(c1cc2oc(-c3ccc(F)cc3)c(C(=O)NC)c2cc1-c1ccccc1)S(C)(=O)=O [Example 24, 2-(4-fluorophenyl)-6-[hexyl (methylsulfonyl)amino]-N-methyl-5-phenyl-1-benzofuran-3-carboxamide]	182 nM
CNC(=O)c1c(-c2ccc(F)cc2)oc2cc(N(C)S(C)(=O)=O)c(-c3cccc(-c4nc5c(C)cccc5[nH]4)c3)cc12 [Example 303]	1.8 nM
CNC(=O)c1c(-c2ccc(F)cc2)oc2cc(N(C)S(C)(=O)=O)c(-c3cccc(-c4nc5ncc(Cl)cc5s4)c3)cc12 [Example 261]	2 nM
CNC(=O)c1c(-c2ccc(F)cc2)oc2cc(N(C)S(C)(=O)=O)c(-c3ccc(CNS(C)(=O)=O)cc3)cc12 [Example 104]	164 nM
CNC(=O)c1c(-c2ccc(F)cc2)oc2cc(N(CCCNC(=O)OC(C)(C)C)S(C)(=O)=O)c(-c3cccc(-c4nc5ncccc5o4)c3)cc12 [Compound 395]	8.2 nM
CNC(=O)c1c(-c2ccc(F)cc2)oc2cc(N(C)S(C)(=O)=O)c(-c3ccc(O)cc3)cc12 [Example 113, 2-(4-fluorophenyl)-5-(4-hydroxyphenyl)-N-methyl-6-[methyl(methylsulfonyl)amino]-1-benzofuran-3-carboxamide]	74 nM
CNC(=O)c1c(-c2ccc(F)cc2)oc2cc(N(C)S(C)(=O)=O)c(-c3cc(F)cc(-c4nc5cccnc5s4)c3)cc12 [Example 245]	2 nM
CONC(=O)c1c(-c2ccc(F)cc2)oc2cc(N(C)S(C)(=O)=O)c(-c3ccc(F)cc3)cc12 [Example 96, 2,5-bis(4-fluorophenyl)-N-methoxy-6-[methyl (methylsulfonyl)amino]-1-benzofuran-3-carboxamide]	1230 nM
CNC(=O)c1c(-c2ccc(F)cc2)oc2cc(N(C)S(C)(=O)=O)c(-c3cccc(-c4nnn(CC(=O)O)n4)c3)cc12 [Example 140, [5-(3-{2-(4-fluorophenyl)-3-(methylcarbamoyl)-6-[methyl (methylsulfonyl)amino]-1-benzofuran-5-yl}phenyl)-2H-tetrazol-2-yl]acetic acid]	1190 nM
CNC(=O)c1c(-c2ccc(F)cc2)oc2cc(N(C)S(C)(=O)=O)c(-c3ccc(C)c(-c4nc5ncccc5o4)c3)cc12 [Example 208]	1.8 nM
CNC(=O)c1c(-c2ccc(F)cc2)oc2cc(N(C)S(C)(=O)=O)c(-c3cccc(-c4nc5cc(Cl)cnc5o4)c3)cc12 [Example 223]	10 nM
CNC(=O)c1c(-c2ccc(F)cc2)oc2cc(N(C)S(C)(=O)=O)c(-c3cc(OC)cc(-c4nc5nccnc5[nH]4)c3)cc12 [Example 339]	4 nM
CNC(=O)c1c(-c2ccc(F)cc2)oc2cc(N(C)S(C)(=O)=O)c(-c3cc(F)c(F)c(-c4nc5ncccc5o4)c3)cc12 [Example 243]	1.3 nM

Compound	IC50
CNC(=O)c1c(-c2ccc(F)cc2)oc2cc(N(C)S(C)(=O)=O)c(-c3cc(F)cc(-c4nc5ccccc5s4)c3)cc12 [Example 289]	5.4 nM
CNC(=O)c1c(-c2ccc(F)cc2)oc2cc(N(C)S(C)(=O)=O)c(-c3ccc(OC)c(-c4nc5c(F)ccc(F)c5o4)c3)cc12 [Example 409]	2.1 nM
CNC(=O)c1c(-c2ccc(F)cc2)oc2cc(N(C)S(C)(=O)=O)c(-c3cc(F)cc(-c4nc5cccnc5o4)c3)cc12 [Example 218]	1.8 nM
CNC(=O)c1c(-c2ccc(F)cc2)oc2cc(N(C)S(C)(=O)=O)c(-c3ccc(OC)c(-c4cc5ccccc5[nH]4)c3)cc12 [Compound 373]	3.9 nM
CNC(=O)c1c(-c2ccc(F)cc2)oc2cc(NC(=O)CN(C)c3ccccc3)c(-c3ccccc3)cc12 [Example 73]	143 nM
CNC(=O)c1c(-c2ccc(F)cc2)oc2cc(N(C)S(C)(=O)=O)c(-c3cc(F)cc(-c4nc5c(N)ncnc5[nH]4)c3)cc12 [Example 350]	0.7 nM
CNC(=O)c1c(-c2ccc(F)cc2)oc2cc(N(C)S(C)(=O)=O)c(-c3ccc(C)cc3)cc12 [Example 82, 2-(4-fluorophenyl)-N-methyl-6-[methyl (methylsulfonyl)amino]-5-(4-methylphenyl)-1-benzofuran-3-carboxamide]	53 nM
CCCCCN(c1cc2oc(-c3ccc(F)cc3)c(C(=O)NC)c2cc1-c1ccccc1)S(C)(=O)=O [Example 20, 2-(4-fluorophenyl)-N-methyl-6-[(methylsulfonyl) (pentyl)amino]-5-phenyl-1-benzofuran-3-carboxamide]	66 nM
CNC(=O)c1c(-c2ccc(F)cc2)oc2cc(N(C)S(C)(=O)=O)c(-c3cc(F)c(OC)c(-c4nc5cccnc5o4)c3)cc12 [Example 233]	2.9 nM
CCOC(=O)N(CCN(C)c1ccccc1)c1cc2oc(-c3ccc(F)cc3)c(C(=O)NC)c2cc1-c1ccccc1 [Example 72, ethyl[2-(4-fluorophenyl)-3-(methylcarbamoyl)-5-phenyl-1-benzofuran-6-yl]{2-[methyl(phenyl)amino]ethyl}carbamate]	2670 nM
CNC(=O)c1c(-c2ccc(F)cc2)oc2cc(N(CCO)S(C)(=O)=O)c(-c3ccccc3)cc12 [Example 2, 2-(4-fluorophenyl)-6-[(2-hydroxyethyl) (methylsulfonyl)amino]-N-methyl-5-phenyl-1-benzofuran-3-carboxamide]	114 nM
CNC(=O)c1c(-c2ccc(F)cc2)oc2cc(N(C)S(C)(=O)=O)c(-c3cc(F)cc(-c4nc5cc(Cl)ccc5o4)c3)cc12 [Example 162]	8.2 nM
CONC(=O)c1c(-c2ccc(F)cc2)oc2cc(N(C)S(C)(=O)=O)c(-c3cccc(OC)c3)cc12 [Example 97, 2-(4-fluorophenyl)-N-methoxy-5-(3-methoxyphenyl)-6-[methyl (methylsulfonyl)amino]-1-benzofuran-3-carboxamide]	126 nM
CNC(=O)c1c(-c2ccc(F)cc2)oc2cc(N(C)S(C)(=O)=O)c(-c3cccc(-c4nc5cccc(Cl)c5o4)c3)cc12 [Example 172]	27 nM
CNC(=O)c1c(-c2ccc(F)cc2)oc2cc(N(C)S(C)(=O)=O)c(-c3cc(F)cc(-c4nc5cnccc5o4)c3)cc12 [Example 212]	2.6 nM
CNC(=O)c1c(-c2ccc(F)cc2)oc2cc(N(C)S(C)(=O)=O)c(-c3cc(F)cc(-c4nc5cc(Cl)cnc5o4)c3)cc12 [Example 219]	3 nM

same assay, conditions: read-out: 1b IC50; HCV genotype 1b replicon; 96 hours incubation; NS3/4A cell ELISA

Compound	IC50
CNC(=O)c1c(-c2ccc(F)cc2)oc2cc(N(CCF)S(C)(=O)=O)c(-c3cccc(-c4nc5ncccc5o4)c3)cc12 [Example 867]	1.8 nM
